According to ChEMBL document CHEMBL1201862, “PubChem BioAssay data set” (2004):
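Each compound was tested at five concentrations against cells in 96-well plates for 48 hours. GI50: concentration for 50% inhibition of growth.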 Activity calls are given as the source filed them. Cut-off read from the data, not from the text of the source: active = GI50 up to about 1.1 µM and inactive = higher.

What was measured:
Assay in all cases: growth of human tumour cells (NCI), 48 h
[1] = test system: K562
[2] = test system: UACC-62
[3] = test system: A498
[4] = test system: IGROV-1
[5] = test system: OVCAR-8
[6] = test system: LOX IMVI
[7] = test system: SF-295
[8] = test system: RPMI-8226
[9] = test system: RXF 393
[10] = test system: BT-549
[11] = test system: SK-OV-3
[12] = test system: TK-10
[13] = test system: COLO 205
[14] = test system: NCI-H23
[15] = test system: SW-620
[16] = test system: HCT-15
[17] = test system: UO-31
[18] = test system: SK-MEL-28
[19] = test system: MDA-N
[20] = test system: SR

| SMILES | GI50 [1] | GI50 [2] | GI50 [3] | GI50 [4] | GI50 [5] | GI50 [6] | GI50 [7] | GI50 [8] | GI50 [9] | GI50 [10] | GI50 [11] | GI50 [12] | GI50 [13] | GI50 [14] | GI50 [15] | GI50 [16] [µM] | GI50 [17] | GI50 [18] | GI50 [19] | GI50 [20] |
| --- | --- | --- | --- | --- | --- | --- | --- | --- | --- | --- | --- | --- | --- | --- | --- | --- | --- | --- | --- | --- |
| COc1ccc(NC2=CC(=O)C(=O)c3ccccc32)nn1 | 0.224 µM (active) | 1.34 µM (inactive) | 1.73 µM (inactive) | 1.69 µM (inactive) | 1.67 µM (inactive) | 1.66 µM (inactive) | 0.822 µM (active) | 1.51 µM (inactive) | 1.36 µM (inactive) | 0.743 µM (active) | 2.17 µM (inactive) | 3.56 µM (inactive) | 1.73 µM (inactive) | 1.91 µM (inactive) | 1.29 µM (inactive) | 0.423 | 2.5 µM (inactive) | 1.08 µM (active) | 0.262 µM (active) |  |
| COc1cc(N(C)C)c(OC)cc1/C=C\c1ccnc2ccccc12 | 4.01 µM (inactive) | 3.39 µM (inactive) | 3.1 µM (inactive) | 0.824 µM (active) | 9.44 µM (inactive) | 0.746 µM (active) | 2.86 µM (inactive) | 2.71 µM (inactive) | > 10 µM (inactive) | 4.34 µM (inactive) | > 10 µM (inactive) | 2.12 µM (inactive) | 3.55 µM (inactive) | 3.86 µM (inactive) | 4.68 µM (inactive) | 0.652 | > 10 µM (inactive) | 1.86 µM (inactive) | 1.71 µM (inactive) |  |
| CCOC1=C/C(=N\Nc2ccc([N+](=O)[O-])cc2)CCC1 | 18.9 µM (inactive) | 22.5 µM (inactive) | 26.3 µM (inactive) | 15 µM (inactive) | 16.4 µM (inactive) | 8.77 µM (inactive) | 13.1 µM (inactive) | 14.9 µM (inactive) | 21.9 µM (inactive) | 13.6 µM (inactive) | 44.7 µM (inactive) | 25.5 µM (inactive) | 15.3 µM (inactive) | 18.5 µM (inactive) | 14.8 µM (inactive) | 7.94 | 12.1 µM (inactive) | 23.2 µM (inactive) |  | 4.53 µM (inactive) |
| Cc1cc(=O)n2nc(CN3CCCCC3)sc2n1 | > 100 µM (inactive) | > 100 µM (inactive) |  | > 100 µM (inactive) | > 100 µM (inactive) | > 100 µM (inactive) | > 100 µM (inactive) | > 100 µM (inactive) | > 100 µM (inactive) | > 100 µM (inactive) | > 100 µM (inactive) | > 100 µM (inactive) | > 100 µM (inactive) | > 100 µM (inactive) | > 100 µM (inactive) | > 100 | > 100 µM (inactive) | > 100 µM (inactive) | > 100 µM (inactive) | > 100 µM (inactive) |
| Cc1ccc([S+]([O-])C[C@@]2(C(F)F)NC(=O)NC2=O)cc1 (stereo not given in full) | > 100 µM (inactive) | > 100 µM (inactive) | > 100 µM (inactive) | > 100 µM (inactive) | > 100 µM (inactive) | > 100 µM (inactive) | > 100 µM (inactive) | > 100 µM (inactive) | > 100 µM (inactive) | > 100 µM (inactive) | > 100 µM (inactive) | > 100 µM (inactive) | > 100 µM (inactive) | > 100 µM (inactive) | > 100 µM (inactive) | > 100 | > 100 µM (inactive) | > 100 µM (inactive) |  | > 100 µM (inactive) |
